Measurements as given in patent publication US10034738B2, “Cardiac tissue constructs and methods of fabrication thereof” (THE GOVERNING COUNCIL OF THE UNIVERSITY OF TORONTO, priority 2012, dated 2018).
“Also recorded” adds a separate entry of the source.

How the values were obtained:
[1] = test system: cardiac tissue constructs; conditions: relative to no-drug control, 15 minutes of incubation at 37 degrees Celsius, increasing concentrations
Procedure: In the present example, microwells with ramped support structures having retaining structures provided thereon, as described above, were seeded at 0.1×10^6 cells per tissue in 2.0 mg/mL Collagen 1. Tissues remodeled over two weeks along with contractile force as measured using the microcantilevers in the system. After two weeks, tissues were introduced with drugs in 100% DMSO vehicle. Final concentrations applied to tissues were ensured to be less than 0.01% DMSO to ensure non-toxic effects. Concentrations were mixed separately in a 96 well plate and applied to the tissues. Measurements were taken after 15 minutes of incubation with the drug at 37 degrees Celsius.
Videos of approximately 10 seconds were recorded and analyzed offline using ImageJ for each condition. […] Contractile force assays were conducted after the contractile force was plateaued to ensure no changes in contractile force due to tissue remodeling.

cardiac microwire [2] = experiment: Optical mapping of intracellular calcium transients of cardiac microwire (calcium-sensitive dye); assay type: cell-based, human
Procedure: (§1) Using drugs of known effects, the cardiac microwire was perturbed and optically mapped their response (transmembrane AP and intracellular calcium transient) using voltage- and calcium-sensitive dyes, respectively.
(§2) Conduction velocity was calculated at each location using activation times of 9 neighbouring sites. Conduction velocity values from all sites were used to calculate the average conduction velocity across the construct surface; minimum and maximum values were also noted. Phase contrast images of microtissue surfaces were taken prior to optical mapping, to correlate tissue architecture geometry with conduction velocity. Concentrations of drugs used applied as indicated. Stock solutions were prepared as recommended by vendors: Epinephrine at 1:1000 (Hospira), Lidocaine at 1:1000 (Hospira), and Verapamil at 1:1000 (Sandoz).

[3] = test system: cardiac tissue constructs; experiment: Preliminary growth factor screen, excitation threshold (ET) of cardiac tissue constructs; assay type: cell-based; conditions: compared to the control condition
Procedure: Tissue function was established by measuring excitation threshold (ET), the minimum voltage required to pace the tissue simultaneously, and maximum capture rate (MCR), the maximum stimulation rate at which the construct can be induced to beat simultaneously, at 7 days after cell seeding. Tissue constructs or cardiomyocyte aggregates were individually placed between a pair of carbon electrodes in stimulation chambers (autoclaved before use). ET (V/cm) was measured by stimulating the tissue with square pulses of 2 ms pulse width at a frequency of 1 or 2 Hz and gradually increasing the output voltage of the stimulator until >80% of the tissue was beating synchronously with the stimulator output. MCR was measured by setting the output voltage at 12 V, and increasing frequency until >80% of the tissue was no longer synchronously beating with the driving signal. […]
A preliminary screen was also performed in order to determine the maturation effect of growth factors. […] The challenge with higher level functional readouts with in vitro models is that further analyses need to be done to determine the mode of action. In order to determine the mechanism of IGF1 and HRG, other functional parameters as well as molecular readouts over a time course will be investigated.

cardiac microwire [4] = experiment: Optical mapping of transmembrane action potentials of cardiac microwire (voltage-sensitive dye); assay type: cell-based, human; conditions: relative to the baseline
Procedure: as §1
For optical measurements, microtissues were stained with […] of Di-4-ANEPPS (Invitrogen, Carlsbad Calif.) voltage-sensitive dye for 20 minutes, followed by 3 washouts with fresh warm Tyrode's solution (Sigma-Aldrich) adjusted to pH 7.4. The temperature was kept constant at 37° C. using a block incubator. Dye fluorescence was recorded using a microscope mapping system (Ultima, Scimedia, Tokyo Japan). The system included a CMOS camera with a 1 cm sensor (100×100 pixel) attached to a custom-built microscope using PLAN APO objective and condensing lenses (Leica Microsystems GmbH, Wetzlar Germany), giving a magnification of 1.5×. The spatial resolution was 63 μm/pixel. The fluorescence was excited using a Xenon light source (Moritek Corp. Japan) and a 530 nm green filter (Semrock, Rochester N.Y.) and the emission signal was long pass filtered using a 610 nm red filter. Tissue constructs were point stimulated at 1000-ms cycle length using a bipolar electrode made with 2 fine silver wires (AWG#32) inserted in a large stainless steel needle mounted on a micromanipulator. Spontaneous tissue beating was also recorded, in addition to responses to frequency sweep from 1 to 5 Hz. Local activation times were measured at the peak of dF/dT for each pixel. Activation maps were constructed for a selected beat.
as §2, with “Stock solutions were prepared as recommended by vendors: Epinephrine at 1:1000 (Hospira), Lidocaine at 1:1000 (Hospira), and Verapamil at 1:1000 (Sandoz).” left out

CC(C)(C)c1ccc(C(O)CCCN2CCC(C(O)(c3ccccc3)c3ccccc3)CC2)cc1 (stereo not shown) [Terfenadine]
relative contractile force [1]: reduce the contractile force (relative to control) with increasing concentrations

COc1ccc(CCN(C)CCCC(C#N)(c2ccc(OC)c(OC)c2)C(C)C)cc1OC (stereo not shown) [Verapamil]
amplitude of calcium waves (cardiac microwire [2]; Verapamil 0.25 μg/mL, relative to the baseline): reduced the amplitude of calcium waves

IGF1: one of seven growth factors in a preliminary maturation screen
excitation threshold (ET) [3]: reduced ET compared to the control condition

CCN(CC)CC(=O)Nc1c(C)cccc1C [Lidocaine]
AP activation rate (cardiac microwire [4]; increasing concentrations of Lidocaine, 2 μg/mL and 4 μg/mL): reduced and nearly abolished activation; also recorded: decreased the activation rate

CNC[C@H](O)c1ccc(O)c(O)c1 [Epinephrine]
AP activation rate (cardiac microwire [4]; Epinephrine 0.1 μg/mL): increased the AP activation rate relative to the baseline
AP activation rate (cardiac microwire [4]; Epinephrine 0.1 μg/mL, listed as epinephrine): increased activation rate
rate of calcium transients (cardiac microwire [2]; Epinephrine 0.1 μg/mL supplemented after Verapamil 0.25 μg/mL): increased the rate of calcium transients
